From US20180085330A1, “Dose Adjustment” (AbbVie Inc., priority 2016, published 2018)
Where two headings read alike, the source gives them in different places.

How the values were obtained:
[1] = system: organic anion transporting polypeptide (OATP) 1B1/3; assay: OATP1B1/3 inhibition; assay type: in vitro ADME
[2] = target: T1, uridine glucuronosyltransferase (UGT) 1A1 (Homo sapiens, UniProt P22309); assay: UGT1A1 inhibition; assay type: in vitro ADME
T1 sequence (P22309 26-533): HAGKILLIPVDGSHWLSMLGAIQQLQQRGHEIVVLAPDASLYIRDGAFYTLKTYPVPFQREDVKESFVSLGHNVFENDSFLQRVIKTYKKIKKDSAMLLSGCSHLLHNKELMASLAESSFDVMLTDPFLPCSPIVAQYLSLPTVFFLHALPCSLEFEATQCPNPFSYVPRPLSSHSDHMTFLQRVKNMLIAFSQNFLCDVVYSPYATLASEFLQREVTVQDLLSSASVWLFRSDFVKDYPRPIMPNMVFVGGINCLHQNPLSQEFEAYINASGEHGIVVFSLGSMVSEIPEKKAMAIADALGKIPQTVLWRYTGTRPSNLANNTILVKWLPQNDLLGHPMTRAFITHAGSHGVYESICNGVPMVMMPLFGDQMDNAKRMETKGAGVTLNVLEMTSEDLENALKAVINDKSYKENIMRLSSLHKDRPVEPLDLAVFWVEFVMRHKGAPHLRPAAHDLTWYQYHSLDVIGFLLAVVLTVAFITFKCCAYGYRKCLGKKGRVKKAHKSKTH

[3] = target: P-glycoprotein (P-gp) (Homo sapiens, UniProt P08183); assay: P-gp inhibition; assay type: in vitro ADME
[4] = system: cytochrome P450 (CYP) 3A; assay: CYP3A inhibition; assay type: in vitro ADME
[5] = target: T2, breast cancer resistance protein (BCRP) (Homo sapiens, UniProt Q9UNQ0); assay: BCRP inhibition; assay type: in vitro ADME
T2 sequence (Q9UNQ0 1-655): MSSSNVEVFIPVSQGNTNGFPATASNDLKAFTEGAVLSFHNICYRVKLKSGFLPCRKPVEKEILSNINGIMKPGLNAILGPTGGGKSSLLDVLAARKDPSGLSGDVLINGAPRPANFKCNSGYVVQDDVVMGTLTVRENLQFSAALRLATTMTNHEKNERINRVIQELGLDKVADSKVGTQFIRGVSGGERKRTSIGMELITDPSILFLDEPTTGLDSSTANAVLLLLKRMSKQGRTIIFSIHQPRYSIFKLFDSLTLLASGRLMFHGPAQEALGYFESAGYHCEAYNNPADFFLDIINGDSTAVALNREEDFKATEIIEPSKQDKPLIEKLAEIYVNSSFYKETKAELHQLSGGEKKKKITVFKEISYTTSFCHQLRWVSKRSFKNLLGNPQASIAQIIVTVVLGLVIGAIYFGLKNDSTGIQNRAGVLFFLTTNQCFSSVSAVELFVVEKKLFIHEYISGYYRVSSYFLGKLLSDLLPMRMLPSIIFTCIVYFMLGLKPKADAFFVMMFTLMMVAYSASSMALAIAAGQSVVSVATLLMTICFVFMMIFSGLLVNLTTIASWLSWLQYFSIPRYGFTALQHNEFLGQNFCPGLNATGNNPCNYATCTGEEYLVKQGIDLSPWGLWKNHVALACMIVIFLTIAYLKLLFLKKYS

[6] = system: P-gp and/or BCRP; assay: Substrate of P-gp and/or BCRP; assay type: in vitro ADME
[7] = target: T3, CYP1A2 (Homo sapiens, UniProt P05177); assay: CYP1A2 inhibition; assay type: in vitro ADME
T3 sequence (P05177 1-516): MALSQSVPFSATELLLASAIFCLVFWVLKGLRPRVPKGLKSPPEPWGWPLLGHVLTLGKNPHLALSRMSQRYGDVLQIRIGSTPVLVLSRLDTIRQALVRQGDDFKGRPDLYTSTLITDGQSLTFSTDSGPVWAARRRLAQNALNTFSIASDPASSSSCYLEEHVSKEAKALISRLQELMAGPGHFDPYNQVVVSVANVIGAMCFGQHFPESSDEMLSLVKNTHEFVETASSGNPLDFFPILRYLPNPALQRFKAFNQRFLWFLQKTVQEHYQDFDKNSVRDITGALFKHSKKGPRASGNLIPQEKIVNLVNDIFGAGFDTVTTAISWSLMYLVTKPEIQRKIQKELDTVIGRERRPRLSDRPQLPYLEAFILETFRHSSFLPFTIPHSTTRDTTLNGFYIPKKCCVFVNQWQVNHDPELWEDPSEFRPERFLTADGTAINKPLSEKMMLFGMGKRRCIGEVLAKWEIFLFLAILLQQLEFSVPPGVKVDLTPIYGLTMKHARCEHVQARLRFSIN

[8] = Drug interaction studies: pharmacokinetic parameters of coadministered drug in the presence of glecaprevir/pibrentasvir; assay type: in vivo, human; conditions: digoxin 0.5 mg single dose; GLE/PIB 400/120 mg once daily
Description: (§1) Drug interaction studies were performed with glecaprevir/pibrentasvir and other drugs that are likely to be coadministered and with drugs commonly used as probes for pharmacokinetic interactions.

[9] = Digoxin single dose with multiple doses of glecaprevir and pibrentasvir (Example 3); assay type: in vivo, human (adult male and female subjects)
From the text: This Example assessed pharmacokinetics, safety, and tolerability of multiple doses of glecaprevir and pibrentasvir with a single dose of digoxin. Adult male and female subjects in general good health (N=12) were enrolled in the study.

[10] = Potentially significant drug interactions identified in drug interaction studies (effect on concentration); assay type: in vivo, human
From the text: Table 1 provides the effect of coadministration of glecaprevir and pibrentasvir on concentrations of concomitant drugs and the effect of concomitant drugs on glecaprevir and pibrentasvir.

[11] = Drug-drug interaction evaluation in overseas subjects, Phase 1 clinical studies (Example 6); assay type: in vivo, human (overseas subjects); conditions: coadministered with glecaprevir and pibrentasvir
Description: The drug-drug interaction (DDI) of glecaprevir and pibrentasvir was characterized from Phase 1 clinical studies in overseas subjects. DDI was evaluated between glecaprevir and pibrentasvir and drug transporter and CYP probes (CYP3A4, CYP1A2, CYP2D6, CYP2C9 and CYP2C19) and concomitant medications used in HCV-infected subjects including anti-retroviral (ARVs), calcium-channel blockers (CCB), angiotensin-receptor blockers (ARBs), opioids and tacrolimus. Safety and tolerability were assessed throughout the studies.

[12] = system: OATP1B1/3; assay: Substrate of OATP1B1/3; assay type: in vitro ADME
[13] = Drug interaction studies: pharmacokinetic parameters of glecaprevir or pibrentasvir in the presence of coadministered drug; assay type: in vivo, human
Description: as §1

[14] = digoxin 0.5 mg single dose with glecaprevir 400 mg QD + pibrentasvir 120 mg QD
[15] = digoxin 0.5 mg single dose, glecaprevir 400 mg QD + pibrentasvir 120 mg QD
[16] = with atazanavir + ritonavir 300 + 100 mg once daily, GLE/PIB 300/120 mg once daily, effect on the first dose of glecaprevir and pibrentasvir
[17] = with carbamazepine 200 mg twice daily, GLE/PIB 300/120 mg single dose
[18] = with cyclosporine 100 mg single dose, GLE/PIB 300/120 mg once daily
[19] = with cyclosporine 400 mg single dose, GLE/PIB 300/120 mg single dose
[20] = with darunavir + ritonavir 800 + 100 mg once daily, GLE/PIB 300/120 mg once daily
[21] = with elvitegravir/cobicistat/emtricitabine/tenofovir alafenamide 150/150/200/10 mg once daily, GLE/PIB 300/120 mg once daily
[22] = with lopinavir/ritonavir 400/100 mg twice daily, GLE/PIB 300/120 mg once daily
[23] = with omeprazole 20 mg once daily, GLE/PIB 300/120 mg single dose
[24] = with omeprazole 40 mg once daily (1 hour before GLE/PIB), GLE/PIB 300/120 mg single dose
[25] = with rifampin 600 mg (first close), GLE/PIB 300/120 mg single dose
[26] = with rifampin 600 mg once daily, GLE/PIB 300/120 mg single dose 24 hours after final rifampin dose

Sequence of P-glycoprotein (P-gp) (P08183 whole entry): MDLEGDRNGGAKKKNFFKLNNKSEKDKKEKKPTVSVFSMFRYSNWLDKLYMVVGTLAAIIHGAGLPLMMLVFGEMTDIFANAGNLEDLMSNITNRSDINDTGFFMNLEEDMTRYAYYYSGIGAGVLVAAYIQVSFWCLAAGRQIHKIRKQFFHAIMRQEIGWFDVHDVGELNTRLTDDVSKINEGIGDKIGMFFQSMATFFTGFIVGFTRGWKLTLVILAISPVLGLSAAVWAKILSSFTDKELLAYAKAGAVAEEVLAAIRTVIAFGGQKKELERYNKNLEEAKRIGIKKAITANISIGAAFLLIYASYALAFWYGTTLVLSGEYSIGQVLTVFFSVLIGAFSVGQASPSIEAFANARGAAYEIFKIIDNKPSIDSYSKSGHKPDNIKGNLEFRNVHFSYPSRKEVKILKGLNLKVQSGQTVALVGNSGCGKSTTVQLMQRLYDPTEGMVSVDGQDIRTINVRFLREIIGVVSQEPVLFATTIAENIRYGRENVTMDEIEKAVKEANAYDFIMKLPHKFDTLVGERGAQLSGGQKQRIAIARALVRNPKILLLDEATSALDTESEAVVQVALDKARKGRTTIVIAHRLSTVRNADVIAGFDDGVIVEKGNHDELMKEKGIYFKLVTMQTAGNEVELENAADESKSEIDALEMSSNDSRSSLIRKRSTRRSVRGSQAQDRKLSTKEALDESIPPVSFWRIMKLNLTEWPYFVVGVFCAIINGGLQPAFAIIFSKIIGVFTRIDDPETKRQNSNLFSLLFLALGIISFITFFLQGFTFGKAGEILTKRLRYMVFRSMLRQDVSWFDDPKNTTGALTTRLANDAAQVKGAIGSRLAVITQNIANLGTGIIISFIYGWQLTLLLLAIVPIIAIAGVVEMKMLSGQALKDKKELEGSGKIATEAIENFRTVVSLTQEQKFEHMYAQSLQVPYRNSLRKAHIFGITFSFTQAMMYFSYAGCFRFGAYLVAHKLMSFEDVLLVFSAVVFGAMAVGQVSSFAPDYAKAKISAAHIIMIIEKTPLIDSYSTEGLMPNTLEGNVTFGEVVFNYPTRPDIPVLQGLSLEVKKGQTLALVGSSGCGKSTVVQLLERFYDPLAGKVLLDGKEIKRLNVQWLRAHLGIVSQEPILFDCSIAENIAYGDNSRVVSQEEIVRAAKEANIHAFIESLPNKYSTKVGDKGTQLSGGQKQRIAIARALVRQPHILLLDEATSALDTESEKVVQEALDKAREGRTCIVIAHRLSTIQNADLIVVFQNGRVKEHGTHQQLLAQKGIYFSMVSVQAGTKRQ

With `COC(=O)N[C@H](C(=O)N1CCC[C@H]1c1nc2cc([C@H]3CC[C@H](c4cc5nc([C@@H]6CCCN6C(=O)[C@@H](NC(=O)OC)[C@@H](C)OC)[nH]c5cc4F)N3c3cc(F)c(N4CCC(c5ccc(F)cc5)CC4)c(F)c3)c(F)cc2[nH]1)[C@@H](C)OC` [pibrentasvir] the “inhibition of OATP1B1/3” value [1] was “inhibitors”, the “inhibition of UGT1A1” value [2] was “weak inhibitors” and the “inhibition of P-gp” value [3] was “inhibitors”. For the same molecule, the “inhibition of CYP3A” value [4] was “weak inhibitors”, the “inhibition of BCRP” value [5] was “inhibitors” and the “substrate of P-gp and/or BCRP” value [6] was “substrates”. For the same molecule, the “inhibition of CYP1A2” value [7] was “weak inhibitors”.

With `C[C@H]1O[C@@H](O[C@H]2[C@@H](O)C[C@H](O[C@H]3[C@@H](O)C[C@H](O[C@H]4CC[C@@]5(C)[C@H](CC[C@@H]6[C@@H]5C[C@@H](O)[C@]5(C)[C@@H](C7=CC(=O)OC7)CC[C@]65O)C4)O[C@@H]3C)O[C@@H]2C)C[C@H](O)[C@@H]1O` [digoxin] the “Central Value Ratio (90% CI) AUC” value [8] was 1.48, the “Central Value Ratio (90% CI) Cmax” value [8] was 1.72 and the “AUCinf higher when coadministered, compared to digoxin alone” value [9, 14] was 48%. The “Cmax higher when coadministered, compared to digoxin alone” value [9, 14] was 72%, the “fraction of digoxin eliminated in urine, difference with and without glecaprevir and pibrentasvir” value [9, 15] was no more than 18% and the “renal clearance, difference with and without glecaprevir and pibrentasvir” value [9, 15] was no more than 18%. The “Effect on Concentration” value ([10]; concentration of the concomitant drug when coadministered with glecaprevir and pibrentasvir) was “↑ digoxin” and the AUC increase [11] was 48%.

In the case of `CC(C)(C)[C@@H]1NC(=O)O[C@@H]2CCC[C@H]2OC/C=C/C(F)(F)c2nc3ccccc3nc2O[C@@H]2C[C@@H](C(=O)N[C@]3(C(=O)NS(=O)(=O)C4(C)CC4)C[C@H]3C(F)F)N(C2)C1=O` [glecaprevir, Glecaprevir], the “inhibition of OATP1B1/3” value [1] is reported as “inhibitor”, the “inhibition of OATP1B1/3” value ([1]; listed as Glecaprevir) is reported as “inhibitors” and the “substrate of OATP1B1/3” value [12] is reported as “substrate”. The “inhibition of UGT1A1” value [2] was “weak inhibitors”, the “inhibition of P-gp” value [3] was “inhibitors” and the “inhibition of CYP3A” value [4] was “weak inhibitors”. The “inhibition of BCRP” value [5] was “inhibitors”, the “Effect on Concentration” value ([10]; concomitant Darunavir, Lopinavir, Ritonavir) was “↑ glecaprevir” and the “Effect on Concentration” value ([10]; concomitant St. John's Wort (hypericum perforatum)) was “↓ glecaprevir”. For the same molecule, the “Effect on Concentration” value ([10]; concomitant drug Carbamazepine) was “↓ glecaprevir”, the “Effect on Concentration” value ([10]; concomitant drug Cyclosporine) was “↑ glecaprevir” and the “Effect on Concentration” value ([10]; concomitant drug Efavirenz) was “↓ glecaprevir”. For the same molecule, the “Central Value Ratio (90% CI) AUC” value [13, 16] was no less than 6.53, the “Central Value Ratio (90% CI) Cmax” value [13, 16] was no less than 4.06 and the “Central Value Ratio (90% CI) Cmin” value [13, 16] was no less than 14.3. The “Central Value Ratio (90% CI) AUC” value [13, 17] was 0.34, the “Central Value Ratio (90% CI) Cmax” value [13, 17] was 0.33 and the “Central Value Ratio (90% CI) AUC” value [13, 18] was 1.37. The “Central Value Ratio (90% CI) Cmax” value [13, 18] was 1.30, the “Central Value Ratio (90% CI) Cmin” value [13, 18] was 1.34 and the “Central Value Ratio (90% CI) AUC” value [13, 19] was 5.08. The “Central Value Ratio (90% CI) Cmax” value [13, 19] was 4.51, the “Central Value Ratio (90% CI) AUC” value [13, 20] was 4.97 and the “Central Value Ratio (90% CI) Cmax” value [13, 20] was 3.09. For the same molecule, the “Central Value Ratio (90% CI) Cmin” value [13, 20] was 8.24, the “Central Value Ratio (90% CI) AUC” value [13, 21] was 3.05 and the “Central Value Ratio (90% CI) Cmax” value [13, 21] was 2.50. For the same molecule, the “Central Value Ratio (90% CI) Cmin” value [13, 21] was 4.58, the “Central Value Ratio (90% CI) AUC” value [13, 22] was 4.38 and the “Central Value Ratio (90% CI) Cmax” value [13, 22] was 2.55. The “Central Value Ratio (90% CI) Cmin” value [13, 22] was 18.6, the “Central Value Ratio (90% CI) AUC” value [13, 23] was 0.71 and the “Central Value Ratio (90% CI) Cmax” value [13, 23] was 0.78. The “Central Value Ratio (90% CI) AUC” value [13, 24] was 0.49, the “Central Value Ratio (90% CI) Cmax” value [13, 24] was 0.36 and the “Central Value Ratio (90% CI) AUC” value [13, 25] was 8.55. For the same molecule, the “Central Value Ratio (90% CI) Cmax” value [13, 25] was 6.52, the “Central Value Ratio (90% CI) AUC” value [13, 26] was 0.12 and the “Central Value Ratio (90% CI) Cmax” value [13, 26] was 0.14. For the same molecule, the “substrate of P-gp and/or BCRP” value [6] was “substrates” and the “inhibition of CYP1A2” value [7] was “weak inhibitors”.
